Data on five molecules can be found in patent US20240293558A1, “KRAS INHIBITOR CONJUGATES” (Erasca, Inc., priority 2021, published 2024).

The target of assay [1] is T1, KRAS G12D (Homo sapiens, UniProt P01116, G12D). Description: In-vitro RAS-RAF binding assay (RRB), HTRF/FRET. The class given is biochemical. Also noted: Biotinylated KRAS protein amino acids 1-169 (produced at Erasca); made in house. The settings on record: read-out: Inhibition of RAS-RAF Binding (in-vitro) KRAS (G12D) IC50. In a few lines:
(§1)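 Biotinylated KRAS 1-169 (streptavidin-terbium donor, 30 nM) and GST-cRAF RBD (anti-GST d2 acceptor, 30 nM) in HEPES pH 7.5, NaCl, MgCl2, DTT buffer. After compound incubation, SOS1 catalytic domain plus GTPgS drive 60 min nucleotide exchange. HTRF FRET read at equilibrium, in duplicate.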
For orientation: In TR-FRET formats the signal depends on donor and acceptor labels being close together.

A further assay addresses T2, KRAS (WT) (Homo sapiens, UniProt P01116).
T2 construct: Biotinylated KRAS protein amino acids 1-169 (produced at Erasca); made in house
Description: In-vitro RAS-RAF binding assay (RRB), HTRF/FRET. The class given is biochemical. The settings on record: read-out: Inhibition of RAS-RAF Binding (in-vitro) KRAS (WT) IC50. In a few lines: as §1

Assay [2] addresses T1, KRAS G12D. Description: Degradation of KRas G12D in AsPC-1 cells, Western blot. Also noted: endogenous in cells; host or cells: AsPC-1 (ATCC CRL-1682). The class given is cell-based. The conditions noted are these: for Dmax: ASPC1; for Dmax / DC50: AsPc-1 cell line after 24 h treatment; for KRAS G12D degradation (Western blot), result in words: AsPC-1 cells, FIGS. 1-5. The method, then: This Example illustrates that the compounds presented herein degrade KRAS G12D.
AsPC-1 cells (ATCC CRL-1682) expressing G12D were grown in RPMI-1640 medium supplemented with 10% fetal bovine serum, and Penicillin/Streptomycin. Cell were plated in 6-well tissue culture plates at a density of 1 million cells/well and allowed to attach for overnight. Diluted compounds were then added in a final concentration of 0.2% DMSO. After 24 hour treatment, the medium was removed, and the plate was washed three times with ice-cold PBS. 50ul of the RIPA cell lysis buffer (ThermoFisher 89901) supplemented with protease inhibitor (Roche 4693116001) and Phosphatase Cocktail A and B inhibitor (Bimake B15002; Bimake Houston TX) was added to each well, the adherent cells were scratched off, and transferred into pre-cold centrifuge tubes. After vigorous vortex, the tubes were incubated on ice for 30 minutes, centrifuged 14,000 rpm for 10 min at 4° C., and the supernatant were transferred into fresh tubes kept on ice. The protein concentration of the supernatant was determined with bicinchoninic acid method (BCA) (ThermoFisher 23227). Samples were prepared to the final concentration of 30ug in 20ul using NuPAGE LDS Sample Buffer (Invitrogen NP0007), NuPAGE Sample Reducing Agent (Invitrogen NP0009), and RIPA cell lysis buffer, and boiled at 95° C. for 15 minutes in water bath.
The levels of KRAS protein and phosphorylated ERK1/2 were determined by Western blotting. 20 μL of protein sample mixture was loaded into each well of 1.5 mm 4-12% Bis-Tris gel (Invitrogen NP0335), and run at 80V in stacking gel and 120 V in separating gel for about 2 h in MOPS running buffer (Invitrogen NP0001). The gel was transferred to the membrane (20V, 7 min) with Invitrogen iBlot2, and blocked with Li-Cor blocking buffer (LI-COR 927-60001; Li-Cor Biotechnology, Lincoln NE) for at least 1 h at room temperature. Primary antibodies diluted in the blocking buffer were added and incubated at 4° C. overnight. As the primary antibodies, KRAS (Proteintech 12063-1-AP), G12D Mutant Specific KRAS (Cell Signaling Technology 14429S), ERKI1/2 (Cell Signaling Technology 4695S), Phospho-ERKI1/2 (Cell Signaling Technology 4370S), and GAPDH (Millipore MAB374) were used. The membrane was washed 4 times with TBST (0.10% Tween20®; ThermoFisher 28360) for 5 minutes at room temperature, then incubated with Li-Cor anti-rabbit-800 (LI-COR 926-68070) and anti-mouse-680 (LI-COR-926-32211) diluted in Li-Cor blocking buffer with the ratio of 1:15,000 to visualize the primary antibodies for 1 hour at room temperature. Then membrane was washed 4 times with TBST (0.1% Tween20) 5 minutes. The signal intensities of bands were quantified by Li-Cor Odyssey CLX.
The KRas and phosphor-ERK1/2 signals were normalized to the GAPDH signal for each lane and percent of DMSO values were calculated to determine the degradation of KRas and the inhibition of ERK1/2 phosphorylation upon the compound treatment.
Background: A western blot detects proteins with antibodies after separation by electrophoresis.

For another assay, the target named is T3, KRAS 4B G12C protein (Homo sapiens, UniProt P01116, G12C).
T3 construct: made in house; host or cells: E. coli BL21
Description: In vitro covalent adduct formation (CAF) assay, LC-MS. The class given is binding. The conditions noted are these: 5 μM KRAS 4B G12C, 10 μM compound, 22° C. The method, then:
This Example provides a protocol for assessing covalent adduct formation (CAF) between the compounds provided herein and KRAS.
In vitro covalent adduct formation assay: Covalent adduct formation (CAF) reactions between Cys12 of the KRAS 4B G12C protein and embodiments of the application were measured in vitro using liquid chromatography-mass spectrometry (LC-MS).
Recombinant Human KRAS 4B protein containing the G12C mutation was used in compound screening experiments. This protein contained 188 amino acids in total, including an N-terminal 6-Histidine tag, followed by a Tobacco Etch Virus (TEV) tag, followed by residues 1-169 of the native KRAS 4B sequence. The exact mass of the protein was 21,310 Da as determined by mass spectrometry. […]
The recombinant protein was expressed in E. coli BL21 cells and purified using affinity chromatography via a Ni-NTA column. […] The intact mass of the protein samples was measured by LC-MS using a QExactive+mass spectrometer (Thermo Scientific). An amount of 500 ng total protein was injected onto a C8 reverse phase column, eluted with a seven-minute gradient of 30%-90% acetonitrile/0.10% formic acid, and analyzed for intact mass by the mass spectrometer. Adducts identified were confirmed to be within 1 Dalton of the expected mass, and the relative ratios of free:adduct protein were used to quantify the percentage of protein bound by the compound. […]

Where [3] appears, read: Table 2, average of multiple runs of each compound.

Read-outs that look alike come from different tables or passages of the source.

By IC50 is commonly meant the concentration that inhibits the measured activity by half. As usually defined, the Dmax is the greatest extent of degradation seen. Low values mean shallow degradation, high ones deep degradation. As a reminder, the DC50 is the midpoint of the concentration-degradation curve. Higher therefore signals degradation only at high concentration.

As to `Cc1ncsc1-c1ccc([C@H](C)NC(=O)[C@@H]2C[C@@H](O)CN2C(=O)[C@@H](NC(=O)CCOCCCN2CCC[C@H]2COc2nc(N3CC4CCC(C3)N4)c3cnc(-c4cc(O)cc5cccc(F)c45)c(F)c3n2)C(C)(C)C)cc1` [Example 6, (2S,4R)-1-[(2S)-2-[3-[3-[(2S)-2-[[4-(3,8-diazabicyclo[3.2.1]octan-3-yl)-8-fluoro-7-(8-fluoro-3-hydroxy-1-naphthyl)pyrido[4,3-d]pyrimidin-2-yl]oxymethyl]pyrrolidin-1-yl]propoxy]propanoylamino]-3,3-dimethyl-butanoyl]-4-hydroxy-N-[(1S)-1-[4-(4-methylthiazol-5-yl)phenyl]ethyl]pyrrolidine-2-carboxamide], the half-inhibitory concentration (IC50) was 9.5 nM at KRAS G12D [1] (Table 1), 8.21 nM at KRAS G12D [1] (setting [3]), 126 nM at KRAS (WT) (Table 1) and 158 nM at KRAS (WT) (setting [3]). At KRAS G12D [2], this molecule gave a maximal degradation (Dmax) of 95%. The “KRAS G12D degradation (Western blot), result in words” value (shortened to “KRAS G12D degradation (Western blot)”) at KRAS G12D [2] was “Favorable results”. The same molecule returned a DC50 on KRAS G12D [2] of 255 nM.

`C=CC(=O)N1CCN(c2nc(OCCN3CCC(COc4cc([C@H](C(=O)N5C[C@H](O)C[C@H]5C(=O)N[C@@H](C)c5ccc(-c6c(F)cccc6F)cc5)C(C)C)on4)CC3)nc3c(F)c(-c4nc(N)cc(C)c4C(F)(F)F)c(Cl)cc23)[C@@H](C)C1` (atropisomer, axis not shown) [Example 200, (2S,4R)-1-((R)-2-(3-((1-(2-((4-((S)-4-acryloyl-2-methylpiperazin-1-yl)-7-((R)-6-amino-4-methyl-3-(trifluoromethyl)pyridin-2-yl)-6-chloro-8-fluoroquinazolin-2-yl)oxy)ethyl)piperidin-4-yl)methoxy)isoxazol-5-yl)-3-methylbutanoyl)-N—((S)-1-(2′,6′-difluoro-[1,1′-biphenyl]-4-yl)ethyl)-4-hydroxypyrrolidine-2-carboxamide]: the “% CAF at 5 min” value on KRAS 4B G12C protein amounted to 97%.

On to `Cc1ncsc1-c1ccc([C@H](C)NC(=O)[C@@H]2C[C@@H](O)CN2C(=O)[C@@H](NC(=O)CCCCN2CCC[C@H]2COc2nc(N3CC4CCC(C3)N4)c3cc(Cl)c(-c4ccc(F)c5sc(N)nc45)c(F)c3n2)C(C)(C)C)cc1` [Example 7, (2S,4R)-1-[(2S)-2-[5-[(2S)-2-[[7-(2-amino-7-fluoro-1,3-benzothiazol-4-yl)-6-chloro-4-(3,8-diazabicyclo[3.2.1]octan-3-yl)-8-fluoro-quinazolin-2-yl]oxymethyl]pyrrolidin-1-yl]pentanoylamino]-3,3-dimethyl-butanoyl]-4-hydroxy-N-[(1S)-1-[4-(4-methylthiazol-5-yl)phenyl]ethyl]pyrrolidine-2-carboxamide], for which the concentration for half-maximal inhibition (IC50) on KRAS G12D [1] (Table 1) is 12 nM; on KRAS G12D [1] (setting [3]) it was 12.4 nM; on KRAS (WT) (Table 1), 448 nM; on KRAS (WT) (setting [3]), 448 nM. The “KRAS G12D degradation (Western blot)” value at KRAS G12D [2] is “Favorable results”.

For the molecule `Cc1ncsc1-c1ccc([C@H](CO)NC(=O)[C@@H]2C[C@@H](O)CN2C(=O)[C@@H](NC(=O)CCOCCCN2CCC[C@H]2COc2nc(N3CC4CCC(C3)N4)c3cc(Cl)c(-c4ccc(F)c5sc(N)c(C#N)c45)c(F)c3n2)C(C)(C)C)cc1` [Example 9, (2S,4R)-1-[(2S)-2-[3-[3-[(2S)-2-[[7-(2-amino-3-cyano-7-fluoro-benzothiophen-4-yl)-6-chloro-4-(3,8-diazabicyclo[3.2.1]octan-3-yl)-8-fluoro-quinazolin-2-yl]oxymethyl]pyrrolidin-1-yl]propoxy]propanoylamino]-3,3-dimethyl-butanoyl]-4-hydroxy-N-[(1R)-2-hydroxy-1-[4-(4-methylthiazol-5-yl)phenyl]ethyl]pyrrolidine-2-carboxamide], the IC50 at KRAS G12D [1] (Table 1) amounted to 13.8 nM; on KRAS G12D [1] (setting [3]) it was 13.8 nM; at KRAS (WT) (Table 1), 49.5 nM; at KRAS (WT) (setting [3]) it was 49.5 nM. The molecule further gave a Dmax at KRAS G12D [2] of 95%. For the same molecule, the “KRAS G12D degradation (Western blot)” value on KRAS G12D [2] is given as “Favorable results”. The molecule also gave a DC50 at KRAS G12D [2] of 183 nM.

For `Cc1ncsc1-c1ccc([C@H](C)NC(=O)[C@@H]2C[C@@H](O)CN2C(=O)[C@@H](NC(=O)CCOCCCN2CCC[C@H]2COc2nc(N3CC4CCC(C3)N4)c3cc(Cl)c(-c4ccc(F)c5sc(N)nc45)c(F)c3n2)C(C)(C)C)cc1` [Example 4, (2S,4R)-1-[(2S)-2-[3-[3-[(2S)-2-[[7-(2-amino-7-fluoro-1,3-benzothiazol-4-yl)-6-chloro-4-(3,8-diazabicyclo[3.2.1]octan-3-yl)-8-fluoro-quinazolin-2-yl]oxymethyl]pyrrolidin-1-yl]propoxy]propanoylamino]-3,3-dimethylbutanoyl]-4-hydroxy-N-[(1S)-1-[4-(4-methylthiazol-5-yl)phenyl]ethyl]pyrrolidine-2-carboxamide], the 50% inhibitory concentration (IC50) at KRAS G12D [1] (Table 1) was 13 nM; at KRAS G12D [1] (setting [3]), 15.1 nM; on KRAS (WT) (Table 1), 134 nM; at KRAS (WT) (setting [3]), 216 nM. Besides, the “KRAS G12D degradation (Western blot)” value at KRAS G12D [2] is listed as “successful degradation”.
